According to US12076436B2, “Bacterial ferment of Lactobacillus species” (Symrise AG, priority 2021, dated 2024):

Columns and labels:
Interleukin-8 (IL8) = assay: IL8 secretion by EpiDerm 3D reconstituted skin models after IL1a stimulation (ELISA); format: cell-based, human; settings: supernatants; 72 h topical treatment, then 1 μg/ml IL1a approx. 24 h; triplicates; dexamethasone at 50 μM
Protocol: (§1) To assess the effect of the bacterial ferment according to the invention on the secretion levels of IL8, reconstituted 3D skin models (EpiDerm™, MatTek) were used. After a short acclimation phase (daily medium changes), the models were switched to hydrocortisone-free medium, and test compounds were added topically to the reconstituted models. 50 μM dexamethasone was used as positive control, PBS served as negative control in the experiment. After 72 h incubation at 37° C. 5% CO2, the 3D models were washed with PBS and subsequently, an inflammatory response was stimulated by addition of 1 μg/ml Ma in the medium for approx. 24 h. Supernatants were collected after this phase and the IL8 concentration in these supernatants was determined using an ELISA kit (Human […] DuoSet ELISA, R&D Systems). To assess potential toxic effects of the test compounds on the 3D models, a standard MTT assay was carried out to assess viability of the 3D models at the end of the experiment.

[1] = test system: MatTek EpiDerm 3D reconstituted skin models; assay: MTT viability of the 3D skin models; format: cell-based, human; settings: MTT assay at end of experiment; dexamethasone at 50 μM
Protocol: as §1

Lactobacillus cultures = assay: Reduction of Lactobacillus viability by treatment with lactic acid (plating of serial dilutions); format: cell-based

Row | SMILES | IL-8 concentration [pg/ml] ± SEM (Interleukin-8 (IL8)) [pg/mL] | Viability (% vs stimulated control) [1] [% vs stimulated control] | Lactobacillus count (log cfu/ml) (Lactobacillus cultures; 2 % (w/v) lactic acid, 37° C., 12 h) | Lactobacillus count (log cfu/ml) (Lactobacillus cultures; 2.8 % (w/v) lactic acid, 37° C., 12 h) | Lactobacillus count (log cfu/ml) (Lactobacillus cultures; 3 % (w/v) lactic acid, 37° C., 12 h) | Lactobacillus count (log cfu/ml) (Lactobacillus cultures; 3.4 % (w/v) lactic acid, 37° C., 12 h) | Lactobacillus count (log cfu/ml) (Lactobacillus cultures; 3.6 % (w/v) lactic acid, 37° C., 12 h) | Lactobacillus count (log cfu/ml) (Lactobacillus cultures; 4 % (w/v) lactic acid, 37° C., 12 h) | Lactobacillus count (log cfu/ml) (Lactobacillus cultures; 4.4 % (w/v) lactic acid, 37° C., 12 h) | Lactobacillus count (log cfu/ml) (Lactobacillus cultures; 4.8 % (w/v) lactic acid, 37° C., 12 h) | Lactobacillus count (log cfu/ml) (Lactobacillus cultures; 5 % (w/v) lactic acid, 37° C., 12 h) | Lactobacillus count (log cfu/ml) (Lactobacillus cultures; 5.4 % (w/v) lactic acid, 37° C., 12 h) | Lactobacillus count (log cfu/ml) (Lactobacillus cultures; 6 % (w/v) lactic acid, 37° C., 12 h) | Lactobacillus count (log cfu/ml) (Lactobacillus cultures; 6.8 % (w/v) lactic acid, 37° C., 12 h) | lactic acid concentration range of optimal reduction of Lactobacillus count (Lactobacillus cultures; 37° C., 12 h) | reduction in bacterial count by short pH shock with lactic acid (Lactobacillus cultures; step c of the method, bacterial ferment supernatant)
1 | C[C@@H]1C[C@H]2[C@@H]3CCC4=CC(=O)C=C[C@]4(C)[C@@]3(F)[C@@H](O)C[C@]2(C)[C@@]1(O)C(=O)CO [Dexamethasone, dexamethasone] | 1225 ± 18.61 | 90 | – | – | – | – | – | – | – | – | – | – | – | – | – | –
2 | CC(O)C(=O)O (stereo not shown) [Lactic Acid, lactic acid] | – | – | 7.54 | 7.08 | 5.45 | 4.72 | 5.09 | 3.52 | 3.60 | 3.00 | 1.00 | 1.38 | 1.95 | 1.70 | ca. 5 % (w/v) | at least 9 order
